Reference: US20240109893A1, “PREPARATION AND APPLICATION METHOD OF HETEROCYCLIC COMPOUNDS AS KRAS INHIBITOR” (SHANGHAI KECHOW PHARMA, INC., priority 2020, published 2024)

How the values were obtained:
H358 cells = test: Cell activity experiment: activity test of H358 cells (MTT, 5 days); type: cell-based; settings: 5 days incubation, absorbance 492 nm
Outline: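 H358 cells seeded 90 μL at 55555 cells/mL, grown 24 h, then exposed to 3-fold serial compound dilutions (final top 10000 nM, 0.5% DMSO) in triplicate for 5 days at 37° C., 5% CO2. Viability by MTT (4 h), formazan dissolved in DMSO, absorbance at 492 nm.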

KRAS G12C-GDP = KRAS G12C-GDP (Homo sapiens (Human), UniProt P01116, G12C); test: KRAS G12C-GDP exchange test (SOS/cRAF/GTP, HTRF); type: biochemical; settings: 1 h premix with compound, 2 h reaction with SOS, cRAF, GTP
KRAS G12C-GDP, sequence (P01116-2 other isoform, or with tags, fused parts or gaps G12C): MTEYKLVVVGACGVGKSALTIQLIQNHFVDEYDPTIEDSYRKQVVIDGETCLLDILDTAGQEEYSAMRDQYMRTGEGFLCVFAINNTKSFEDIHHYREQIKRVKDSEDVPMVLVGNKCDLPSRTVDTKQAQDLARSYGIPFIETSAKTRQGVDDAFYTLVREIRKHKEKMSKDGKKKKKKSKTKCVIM
Description: 2. A mixture of SOS (Pharmaron, ZZY-20190823), cRAF (Pharmaron, ZZY-20190823), GTP (Sigma, A6885-100MG), MAb Anti 6HIS-d2/MAb Anti GST-Eu (Cisbio, 61HISDLB/61GSTKLB) was added for a catalyzed reaction for 2 h.
3. The fluorescence signals of the emitted light at 615 nm and 665 nm under 320 nm excitation light were read by Biotek Microplate Reader (Synergy4).
4. The IC50 (median inhibitory concentration) of the compound was obtained by the following non-linear fitting formula: Y=Bottom+(Top−Bottom)/(1+10^((Log IC50−X)*Hill Slope)), and the data were analyzed by Graphpad 6-0 software.

[1] = Pharmacokinetic experiment in SD rats; type: in vivo; settings: male, Sprague-Dawley, rat, plasma, po, 10 mg/kg; read-out: Oral bioavailability, F %
Description: Pharmacokinetic Experiment in SD Rats:
1. SPF male rats were randomly divided into groups. The compounds to be tested were separately administered by intravenous injection and oral gavage, with 3 animals for each compound to be tested in each mode of administration. The administration solvent was 5% DMSO+10% Solutol+85% normal saline or 85% PBS, and the substances to be tested were dissolved in the solvent to obtain clear solutions. Administration concentration and volume: 1) a single intravenous injection of 0.6 mg/mL of the compound to be tested, with an administration volume of 5 mL/kg and an administration dosage of 3 mg/kg; and 2) a single oral gavage of 1 mg/mL of the compound to be tested, with an administration volume of 10 mL/kg and an administration dosage of 10 mg/kg. The rats were fasted overnight (10-14 h) before administration and fed 4 h after administration.
2. Blood was collected via the jugular vein or by other appropriate methods at 200 μL per time point and anticoagulated with K2-EDTA, and after collection, the blood was placed on ice and centrifuged for plasma within 1 h (centrifugation conditions: 6800 g, 6 min 2-8° C.). The points for blood sampling from the animals in the intravenous injection group were respectively: before administration, and 5 min, 15 min, 30 min, 1 h, 2 h, 4 h, 8 h, and 24 h after administration; and the points for blood sampling from the animals in the oral administration group were respectively: before administration, and 15 min, 30 min, 1 h, 2 h, 4 h, 6 h, 8 h, and 24 h after administration.
3. The blood concentration was detected, and the pharmacokinetic parameter AUC(0-t) was calculated by Phoenix WinNonlin based on the blood concentration data at various time points. When the pharmacokinetic parameters were calculated, the BLQ before Cmax (including ‘No peak’) was calculated as 0: and BLQ after Cmax (including ‘No peak’) was not involved in the calculation.

| IC50 (H358 cells) [nM] | IC50 (KRAS G12C-GDP) [nM] | bioavailability [1] [%] | IC50 (H358 cells; Homo sapiens, NCI-H358, 120 h) [nM] | Compound |
| --- | --- | --- | --- | --- |
| 2.65 | 1.02 | 25.9 | – | C=C(F)C(=O)N1CCN(c2nc(OC[C@@]34CCCN3C[C@H](F)C4)nc3c(F)c(-c4cccc5c4CC4CC54)ccc23)C[C@@H]1CC#N (single isomer, unassigned) [Example 887] |
| – | 0.89 | 28.6 | 0.7 | C=C(F)C(=O)N1CCN(c2nc(OC[C@@H]3CCCN3C)nc3c(F)c(-c4cccc5cccc(Cl)c45)ccc23)C[C@@H]1CC#N [Example 903] |
| – | 2.4 | 2.35 | 3.4 | C=CC(=O)N1CCN(c2nc(OC[C@@H]3CCCN3C)nc3c(F)c(-c4cccc5cccc(Cl)c45)ccc23)C[C@@H]1CC#N [Example 358, 2-((S)-1-acryloyl-4-(7-(8-chloronaphthalen-1-yl)-8-fluoro-2-(((S)-1-methylpyrrolidin-2-yl)methoxy)quinazolin-4-yl)piperazin-2-yl)acetonitrile] |
